According to patent US9561249B2, “Pharmaceutical formulations of nitrite and uses thereof” (TheraVasc Inc., priority 2013, dated 2017):
Where two headings read alike, the source gives them in different places.

What was measured:
[1] = system: subjects with PAD
Method: A resting 12-lead ECG printout with the subject in supine position was obtained at the time points listed in Table 1-Schedule of Assessments. All ECGs were assessed by the PI or qualified designee for clinical significance of any abnormalities or changes and documented on the ECG source document. Any clinically significant abnormalities that occured after the first dose of sodium nitrite was recorded as AEs on the eCRF. The 12-lead ECG was obtained immediately following vitals, with the exception of the Visit 1 Randomization day ECG which was collected prior to dosing.

[2] = system: subjects with PAD; remark: listed apart in the source
Description: An individual subject was withdrawn at the discretion of the responsible investigator and the site study team for the reasons listed below as well as for other safety reasons that may not be listed. In the event one or more subjects were withdrawn, additional subjects were enrolled to ensure an adequate number of subjects complete the cohort. Specific reasons for an individual subject to withdraw included but was not limited to: • Subjects with a pattern of severe adverse events in any SOC, or cardiac monitoring findings as determined by the investigator and/or the sponsor. • Subjects with methemoglobin value 15% on any one occasion during study participation. • Subjects with normal baseline blood pressure who experienced any of the following: an increase in blood pressure to 160 mm Hg systolic and/or 90 mmHg diastolic that persists over 24 hours, an increase from baseline blood pressure of 30 mm Hg systolic and/or 15 mm Hg diastolic that persists over 24 hours, any symptomatic increase in blood pressure. • Subjects with stable elevated blood pressure at baseline who experienced any of the following: an increase in blood pressure to 180 mm Hg systolic and/or 100 mmHg diastolic that persists over 24 hours, an increase from baseline blood pressure of 20 mm Hg systolic and/or 10 mm Hg diastolic that persists over 24 hours, any symptomatic increase in blood pressure. • Subjects who experienced a decrease from baseline blood pressure of 20 mm Hg systolic with or without an increase of 10 beats per minute (BPM) pulse and the presence of symptoms.
The withdrawal criteria allowed a subject to withdraw from the study at any time at his/her own request. The subject may also have been withdrawn at the Investigator's request if it was the Investigator's opinion that it was not in the subject's best interest to continue in the study. The subject was withdrawn if he or she met stopping criteria described above. In the event a subject was withdrawn from the study for any reason, the subject was followed-up with reasonable effort made to determine the reason for their withdrawal from the study and an ET visit as described above. Telephone calls, certified letters and offers of transportation assistance were considered reasonable effort.

[3] = system: subjects with PAD; conditions: even at the 160 mg dose escalation
Method: The following safety parameters were assessed: medical and medication history, concomitant medication usage, physical examination, vital signs, 12-lead ECG, clinical chemistries, CBC, urinalysis, and adverse events. Urine pregnancy testing was completed for women of child-bearing potential who have not been surgically sterilized. Assessment of acute adverse events (i.e., drop in blood pressure, dizziness) was performed after administration of 1st dose for each dose level of sodium nitrite. Dose-limiting toxicity (DLT) was defined as Grade 3 and clinically significant hematological events, particularly MetHb.

[4] = 40-mg, Visit 1 (prior to dosing)
[5] = 80-mg, Visit 1 (prior to dosing)
[6] = 80-mg, Visit 8 (after 6-day dose escalation)
[7] = 160-mg, Visit 8 (after 6-day dose escalation)

SMILES: O=NO [sodium nitrite]
- ECG Heart Rate [1, 4]: 71.4 +/− 12.7 beats/minute
- QTcB interval [1, 4]: 415.9 ± 49.0 ms
- QTcF interval [1, 4]: 404.8 ± 44.9 ms
- ECG Heart Rate ([1]; 40-mg, Visit 5 (Day 28)): 72.2 +/− 14.8 beats/minute
- QTcB interval ([1]; 40-mg, Visit 5 (Day 28)): 430.1 ± 34.8 ms
- QTcF interval ([1]; 40-mg, Visit 5 (Day 28)): 417.7 ± 24.0 ms
- ECG Heart Rate [1, 5]: 62.7 +/− 10.7 beats/minute
- QTcB interval [1, 5]: 422.3 ± 34.0 ms
- QTcF interval [1, 5]: 419.9 ± 30.5 ms
- ECG Heart Rate ([1]; 80-mg, Visit 5 (Day 28)): 65.5 +/− 11.9 beats/minute
- QTcB interval ([1]; 80-mg, Visit 5 (Day 28)): 411.6 ± 49.7 ms
- QTcF interval ([1]; 80-mg, Visit 5 (Day 28)): 406.2 ± 46.2 ms
- ECG Heart Rate [1, 6]: 74.3 +/− 10.0 beats/minute
- QTcB interval [1, 6]: 423.2 ± 4.03 ms
- QTcF interval [1, 6]: 409.5 ± 34.3 ms
- ECG Heart Rate [1, 7]: 64.7 +/− 10.0 beats/minute
- QTcB interval [1, 7]: 427.7 ± 31.9 ms
- QTcF interval [1, 7]: 422.8 ± 27.9 ms
- Subjects who completed the study ([2]; 40 mg, n = 19): 17 (89.5%)
- Subjects who withdrew prior to completion ([2]; 40 mg, n = 19): 2 (10.5%)
- Withdrawal: Adverse Event ([2]; 40 mg, n = 19): 1 (5.3%)
- Withdrawal: Met withdrawal-new hypotension ([2]; 40 mg, n = 19): 0 (0.0%)
- Withdrawal: Subject Request-lack of energy ([2]; 40 mg, n = 19): 1 (5.3%)
- Withdrawal: Subject request- no benefit ([2]; 40 mg, n = 19): 0 (0.0%)
- Withdrawal: Subject request-refused to continue ([2]; 40 mg, n = 19): 0 (0.0%)
- Subjects who completed the study ([2]; 80 mg, n = 18): 15 (83.3%)
- Subjects who withdrew prior to completion ([2]; 80 mg, n = 18): 3 (16.7%)
- Withdrawal: Adverse Event ([2]; 80 mg, n = 18): 2 (11.1%)
- Withdrawal: Met withdrawal-new hypotension ([2]; 80 mg, n = 18): 1 (5.6%)
- Withdrawal: Subject Request-lack of energy ([2]; 80 mg, n = 18): 0 (0.0%)
- Withdrawal: Subject request- no benefit ([2]; 80 mg, n = 18): 0 (0.0%)
- Withdrawal: Subject request-refused to continue ([2]; 80 mg, n = 18): 0 (0.0%)
- Methemoglobin levels [3]: of no concern
